Among the data in patent publication US20220267298A1 (priority 2019, published 2022) are IC50 values, retold here.

Several values for one entry are separate records, joined by “and”; a condition that tells them apart may be missing. Equal entries are not always repeated.

The first assay addresses T1, GRK2 (Homo sapiens, UniProt P25098).
T1 sequence (P25098 1-689): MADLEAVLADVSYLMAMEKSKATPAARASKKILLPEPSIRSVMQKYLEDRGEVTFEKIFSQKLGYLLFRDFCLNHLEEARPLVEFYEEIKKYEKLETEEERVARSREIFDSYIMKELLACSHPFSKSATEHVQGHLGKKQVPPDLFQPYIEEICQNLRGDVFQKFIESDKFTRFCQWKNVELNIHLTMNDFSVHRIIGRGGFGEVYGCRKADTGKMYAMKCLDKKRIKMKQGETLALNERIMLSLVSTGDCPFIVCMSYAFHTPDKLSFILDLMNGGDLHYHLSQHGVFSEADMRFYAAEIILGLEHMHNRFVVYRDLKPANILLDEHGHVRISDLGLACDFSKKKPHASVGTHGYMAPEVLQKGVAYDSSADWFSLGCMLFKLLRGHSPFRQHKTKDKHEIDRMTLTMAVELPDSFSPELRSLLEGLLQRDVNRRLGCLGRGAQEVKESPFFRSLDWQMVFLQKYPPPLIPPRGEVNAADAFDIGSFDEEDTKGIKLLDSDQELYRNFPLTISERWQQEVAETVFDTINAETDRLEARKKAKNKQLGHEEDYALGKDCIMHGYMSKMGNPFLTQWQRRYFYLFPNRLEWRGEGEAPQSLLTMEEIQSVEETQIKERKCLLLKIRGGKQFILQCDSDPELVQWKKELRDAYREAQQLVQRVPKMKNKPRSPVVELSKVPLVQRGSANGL
The assay is described as follows: biochemical.
Details: not given
The protocol:
hGRK2 LANCE Ultra In Vitro Assay
G-protein coupled receptor kinases (GR Kinases) desensitize activated G-protein coupled receptors (GPCRs), by phosphorylation of cytoplasmic loops or carboxyl-terminal tails of GPCRs. GRK2 is one of the 6 different GR kinases and is implicated in heart failure and diabetes.
This assay is sensitive and requires as low as 10 nM enzyme, in a total volume of 10 μL. In addition, the ATP concentration can be varied over a broad range, without interfering with the assay or changing the assay condition. […] Testing inhibitors routinely at both high and low ATP concentrations also enables identification of potential non-ATP competitive inhibitors.
Paroxetine was used as the reference compound in this assay.
Test compounds were dissolved in DMSO at 1 mM and were 3-fold serial diluted. The compound DMSO solutions were then added (100 nL) into a plate well using an acoustic dispenser. To each well was then added 20 nM GRK2 (5 μL) in assay buffer (20 mM HEPES, pH 7.5, 10 mM MgCl2, 0.001% Tween-20®). The plate was sealed and centrifuged at 1000 rpm for 1 min.
The plate and wells containing a mixture of GRK2 and test compound were incubated at ambient temperature for 30 min (prior to initializing the enzymatic reaction).
Enzyme reactions were initiated by the addition of 4.9 μL Substrates/Eu-Ab mix to each well.
The plates were sealed and centrifuged at 1000 rpm for 1 min.
The enzyme reactions were quenched by addition of 10 μL of 12 mM EDTA in 1× LANCE detection solution to each well. The plates were then incubated at ambient temperature for 30 min.
The raw HTRF data were converted to % active as follows:
% active=(sample−NC)/(PC−NC)*100
Take `COc1cccc(Cn2c(C)nc3ccc(-c4ccnc(N)n4)cc3c2=O)c1` [Compound 10, 6-(2-Aminopyrimidin-4-yl)-3-[(3-methoxyphenyl)methyl]-2-methyl-quinazolin-4-one]: the IC50 (in general, the concentration that gives 50% inhibition) turned out to be 371 nM.
In the case of `COc1cccc(Cn2cnc3ccc(-c4cn[nH]c4)c(F)c3c2=O)c1` [Compound 3, 5-Fluoro-3-(3-methoxybenzyl)-6-(1H-pyrazol-4-yl)quinazolin-4(3H)-one], the IC50 amounted to 7 nM.
Same read-out and setting: as for `COc1cccc(C(C(=O)O)n2cnc3ccc(-c4cn[nH]c4)cc3c2=O)c1` (stereo not shown) [Compound 12, (3-Methoxyphenyl)-2-[4-oxo-6-(1H-pyrazol-4-yl)quinazolin-3-yl]acetic acid], the figure is 2550 nM; as for `COc1cccc(Cn2cnc3cc(OC)c(-c4cn[nH]c4)cc3c2=O)c1` [Compound 6, 7-Methoxy-3-[(3-methoxyphenyl)methyl]-6-(1H-pyrazol-4-yl)quinazolin-4-one], 16 nM.
`CCOc1cccc(Cn2cnc3ccc(-c4cn[nH]c4)c(F)c3c2=O)c1` [Compound 8, 3-(3-Ethoxybenzyl)-5-fluoro-6-(1H-pyrazol-4-yl)quinazolin-4(3H)-one] registered an IC50 of 29 nM.
`COc1cccc(Cn2cnc3ccc(-c4cn[nH]c4)c(Cl)c3c2=O)c1` [Compound 7, 5-Chloro-3-[(3-methoxyphenyl)methyl]-6-(1H-pyrazol-4-yl)quinazolin-4-one]: the IC50 was found to be 16 nM.
Take `COC(=O)C(c1cccc(OC)c1)n1cnc2ccc(-c3cn[nH]c3)cc2c1=O` (stereo not shown) [Compound 11, Methyl 2-(3-methoxyphenyl)-2-[4-oxo-6-(1H-pyrazol-4-yl)quinazolin-3-yl]acetate]: the IC50 came out at 1410 nM.
`COc1cccc(Cn2cnc3ccc(-c4cn[nH]c4)c(O)c3c2=O)c1` [Compound 4, 5-Hydroxy-3-(3-methoxybenzyl)-6-(1H-pyrazol-4-yl)quinazolin-4(3H)-one] showed an IC50 of 9 nM.
For the molecule `COc1cccc(Cn2cnc3c(F)cc(-c4cn[nH]c4)cc3c2=O)c1` [Compound 9, 8-Fluoro-3-[(3-methoxyphenyl)methyl]-6-(1H-pyrazol-4-yl)quinazolin-4-one], inhibition was half-maximal at 93 nM (IC50).
Take `COc1cccc(Cn2cnc3ccc(-c4cn[nH]c4)c(OC)c3c2=O)c1` [Compound 5, 5-Methoxy-3-[(3-methoxyphenyl)methyl]-6-(1H-pyrazol-4-yl)quinazolin-4-one]: the IC50 is 9 nM.
`COc1cccc(Cn2cnc3ccc(-c4cn[nH]c4)c(C#N)c3c2=O)c1` [Compound 1, 3-(3-Methoxybenzyl)-4-oxo-6-(1H-pyrazol-4-yl)-3,4-dihydroquinazoline-5-carbonitrile] had an IC50 of 5 nM.

Staying with this assay, now noted: 10 nM GRK2; ATP 30 or 600 μM, not stated which; read-out: GRK2 Lancer IC50.
In the case of `COc1cccc(Cn2cnc3ccc(-c4cn[nH]c4)cc3c2=O)c1` [Compound 2, 3-(3-Methoxybenzyl)-6-(1H-pyrazol-4-yl)quinazolin-4(3H)-one], the IC50 was 6 nM.

A further assay deals with T1, GRK2. The assay is described as follows: biochemical. The conditions noted are these: GRK2 IC50 (μM), 10 nM GRK2; 10 uM ATP.
Experimental: Positive and negative control wells received an equal volume of DMSO. The final DMSO concentration in the assay is 1%.
The plate was placed in centrifuge equipped with a spin-bucket rotor and spun for 1 min at 1000 rpm.
GRK2 enzymatic reactions were initiated with the addition of 2 μL/well of 50 nM GRK2 in assay buffer. Plates were centrifuged for 1 min at 1000 rpm. For negative control wells, the order of reagent addition was reversed: 10 μL/well ADP detection mix (see below) was added first, followed by the addition of 2 μL/well of the GRK2 solution. Reaction mixtures were incubated at ambient temperature for 2 hours.
Following incubation, the reactions were quenched with 10 μL/well of the Transcreener ADP detection mix. […] The plates were then centrifuged for 1 min at 1000 rpm.
Fluorescence polarization values of the reaction mixtures were read on a Safire II plate reader after a 60 min incubation at ambient temperature. Excitation wavelength=590 nm; emission wavelength=650 nm.
The fluorescence polarization data were converted to % activity as follows:
% activity=(sample−NC)/(PC−NC)*100
where NC is the mean of negative control (ADP detection mix added prior to GRK2 addition), and PC is the mean of positive control (GRK2 reaction without inhibitor). IC50 values are determined from a 4-parameter fit, using the following equation:
Y=Bottom+(Top−Bottom)/(1+10^((Log IC50-X)*Hill slope)),
where X=log10 of the compound concentration.
`COc1cccc(Cn2cnc3ccc(-c4cn[nH]c4)cc3c2=O)c1` [Compound 2, 3-(3-Methoxybenzyl)-6-(1H-pyrazol-4-yl)quinazolin-4(3H)-one]: the IC50 was ~0.01 µM and 0.011 µM.
